{"source": "patent US8569511B2", "about": "“Substituted 3-(1H-benzo[d]imidazol-2-yl)-1H-indazole analogs as inhibitors of the PDK1 kinase” (University of Utah Research Foundation, priority 2011, dated 2013)", "key": {"AN3-CA cells": {"test_system": "AN3-CA cells", "test": "Cell viability assay (ATP-lite)", "assay_type": "cell-based", "experimental": "(§1) AN3-CA (PTEN-deficient), RL95-2 (PTEN-deficient), and HEC-1A (PTEN-wild type) cells were plated in 45 μl of RPMI-1640 media supplemented with 10% FBS and 1% Pen/Strep at a density of 1000 cells per well in white 384-well plates. Cells were allowed to attach by incubation overnight at 37° C. and 5% CO2. Test compounds were diluted to 10× concentrations in RPMI-1640 media (containing 3% DMSO) and 5 μl 1 of these dilutions were added in triplicate to the appropriate wells containing the cells. The plates containing the drug-treated cells and appropriate controls were incubated for 96 hours. At the end of the incubation, 40 μl of ATP-lite (PerkinElmer, Inc., Waltham, Massachussetts) reagent were added to each well and luminescence signal was measured on an EnVision microplate reader.\n(§2) Alternatively, AN3-CA, RL95-2, HEC-1A endometrial cancer cell lines were plated at a density of 2000 cells per well in a 96 well culture plate in 45 μl of cell culture media and incubated overnight. The following day, test compounds were added to the cells in 5 μl of serum-free media to generate final concentrations of 10, 3, 1, 0.3, 0.1, 0.03, 0.01, or 0.003 μM. Vehicle treated controls were also included and each condition was applied in quadruplicate. Following 96 hours of incubation, 35 μL of ATP-lite (PerkinElmer) reagent was added each well and allowed to react for 10 minutes. Plate was read on a Envision 2104 MultiLabel reader (PerkinElmer).\n(§3) IC50 values are determined using GraphPad Prism 5 software. The data were entered as an X-Y plot into the software as percent inhibition for each concentration of the drug. The concentration values of the drug were log transformed and the nonlinear regression was carried out using the “sigmoidal dose-response (variable slope)” option within the GraphPad software to model the data and calculate IC50 values."}, "PDK1 [1]": {"molecular_target": "T1, PDK1 (Homo sapiens (Human), UniProt O15530)", "T1 sequence (O15530 whole entry)": "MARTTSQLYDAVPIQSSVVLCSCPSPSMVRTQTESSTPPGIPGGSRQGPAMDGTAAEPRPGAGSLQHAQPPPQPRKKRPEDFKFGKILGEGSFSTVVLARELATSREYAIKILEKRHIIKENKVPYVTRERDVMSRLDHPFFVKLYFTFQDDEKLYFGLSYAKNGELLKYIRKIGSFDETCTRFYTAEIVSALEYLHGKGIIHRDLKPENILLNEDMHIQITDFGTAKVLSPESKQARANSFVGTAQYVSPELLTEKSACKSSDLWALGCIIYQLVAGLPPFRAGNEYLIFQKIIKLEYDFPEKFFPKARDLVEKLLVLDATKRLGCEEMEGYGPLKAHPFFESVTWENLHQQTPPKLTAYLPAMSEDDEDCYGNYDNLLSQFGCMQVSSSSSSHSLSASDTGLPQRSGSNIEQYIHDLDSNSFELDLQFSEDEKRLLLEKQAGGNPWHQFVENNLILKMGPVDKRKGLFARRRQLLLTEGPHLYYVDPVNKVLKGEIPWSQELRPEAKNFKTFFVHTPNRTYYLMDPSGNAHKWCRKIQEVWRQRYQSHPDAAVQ", "test": "Time resolved-FRET LanthaScreen Kinase Binding Assay", "text": "Binding of the tracer to the kinase is detected using a europium-labeled anti-tag antibody, which binds to the kinase of interest. […] Binding of an inhibitor to the kinase competes for binding with the tracer, resulting in a loss of FRET.\nActivity of compounds was routinely assessed using a secondary assay as described herein. The secondary assay was a time resolved-FRET LanthaScreen Kinase Binding Assay (Invitrogen Corporation, Carlsbad, Calif.). This assay evaluates the ability of the test compound to compete with a fluorescently-labeled tracer molecule to bind in the ATP pocket of a kinase. The assay signal is generated when a Europium-conjugated anti-His tag antibody (Invitrogen) bound to the His-tagged kinase produces a TR-FRET signal with the tracer molecule bound in the ATP pocket of the kinase. […] After 60 minutes of incubation at room temperature, the TR-FRET signal was measured on an EnVision microplate reader.\nas §3"}, "PDK1 [2]": {"molecular_target": "T1, PDK1", "test": "PDK1 fluorometric activity assay performed by Life Technologies", "assay_type": "biochemical", "details": "for IC50: fluorometric assay performed by Life Technologies (Table IV), read-out: PDK1 Kinase assays (IC50)", "experimental": "PDK1 biochemical activity was measured by a fluorometric assay performed by Life Technologies (Grand Island, N.Y.). The assay conditions for PDK1 are as follows. The 2×PDK1/Ser/Thr-07 mixture is prepared in 50 mM Tris pH 8.5, 0.01% BRIJ-35, 10 mM MgCl2, 1 mM EGTA, 0.02% NaN3.\nThe kinase specificity was measured using fluorometric assays performed by Life Technologies (Grand Island, N.Y.). Assay conditions vary for each kinase and are available from Life Technologies, Grand Island, NY. For example, the assay conditions for PDK1 are as follows. The 2×PDK1/Ser/Thr-07 mixture is prepared in 50 mM Tris pH 8.5, 0.01% BRIJ-35, 10 mM MgCl2, 1 mM EGTA, 0.02% NaN3."}, "KG-1 cell line": {"test_system": "KG-1 cell line", "test": "Screen of further cell lines", "assay_type": "cell-based", "details": "acute myeloid leukemic line", "text": "(§4) In order to determine if there were additional cell lines that were profoundly sensitive to this compound, a further 82 cell lines were screened which represented more than 20 different tumor types of origin. […] Without wishing to bound by a particular theory, these three additional cell lines are all acute myeloid leukemic lines that have different activating mutations in oncogenes that have been associated with elevated PI3K activity. MV4-11 has the FLT3 internal tandem duplication (ITD) and Kasumi-1 has amplified and mutated c-kit as well as the AML-ETO gene fusion. […] All three lines have wild-type PTEN but have shown to express very low levels of PTEN protein, which makes them functionally deficient for PTEN."}, "Kasumi cell line": {"test_system": "Kasumi cell line", "test": "Screen of further cell lines", "assay_type": "cell-based", "details": "acute myeloid leukemic line", "text": "as §4"}, "MV4-11 cell line": {"test_system": "MV4-11 cell line", "test": "Screen of further cell lines", "assay_type": "cell-based", "details": "acute myeloid leukemic line", "text": "as §4"}, "LNCap": {"test_system": "LNCap", "test": "Cell viability assay, cancer cell line panel", "assay_type": "cell-based", "details": "Homo sapiens, mutation PTEN"}, "PC-3": {"test_system": "PC-3", "test": "Cell viability assay, cancer cell line panel", "assay_type": "cell-based", "details": "Homo sapiens, mutation PTEN"}, "RL95-2 cells": {"test_system": "RL95-2 cells", "test": "Cell viability assay (ATP-lite)", "assay_type": "cell-based", "details": "for IC50: Homo sapiens", "experimental": "as §1\nas §2, with “The following day, test compounds were added to the cells in 5 μl of serum-free media to generate final concentrations of 10, 3, 1, 0.3, 0.1, 0.03, 0.01, or 0.003 μM.” left out\nas §3"}, "HEC-1A cells": {"test_system": "HEC-1A cells", "test": "Cell viability assay (ATP-lite)", "assay_type": "cell-based", "details": "for IC50: Homo sapiens", "experimental": "as §1\nas §2, with “The following day, test compounds were added to the cells in 5 μl of serum-free media to generate final concentrations of 10, 3, 1, 0.3, 0.1, 0.03, 0.01, or 0.003 μM.” left out\nas §3"}, "MCF-7": {"test_system": "MCF-7", "test": "Cell viability assay, cancer cell line panel", "assay_type": "cell-based", "details": "Homo sapiens, MCF7; mutation PIK3CA"}, "[3]": {"test_system": "82 cell lines representing more than 20 tumor types", "test": "Screen of a further 82 cell lines (8-point serial dilution)", "assay_type": "cell-based", "text": "as §4"}, "786-O": {"test_system": "786-O", "test": "Cell viability assay, cancer cell line panel", "assay_type": "cell-based", "details": "Homo sapiens, 786-0; mutation PTEN"}, "NCCIT": {"test_system": "NCCIT", "test": "Cell viability assay, cancer cell line panel", "assay_type": "cell-based", "details": "Homo sapiens, mutation PTEN"}, "BT549": {"test_system": "BT549", "test": "Cell viability assay, cancer cell line panel", "assay_type": "cell-based", "details": "Homo sapiens, BT-549; mutation PTEN"}, "[4]": {"details": "Homo sapiens, AN3-CA, AN3-CA (PTEN and PIK3R1 mutations), read-out: Cell Viability IC50 AN3-CA"}, "[5]": {"details": "TR-FRET Lanthascreen Kinase Binding Assay, read-out: PDK1 Kinase assays (IC50, μM) Binding Assay"}, "[6]": {"details": "tested in triplicate, FIG. 5, read-out: IC50 in PDK1 time resolved-FRET LanthaScreen Kinase Binding Assay"}}, "note": "Like-named read-outs stand apart in the source and are kept apart here.", "data": [{"smiles": "CC1CN(c2ccc3nc(-c4n[nH]c5ccc(NC(=O)C6CC6(F)F)cc45)[nH]c3c2)CCO1", "note": "(centres unmarked) [Compound 2, 2,2-difluoro-N-(3-(5-(2-methylmorpholino)-1H-benzo[d]imidazol-2-yl)-1H-indazol-5-yl)cyclopropanecarboxamide]", "values": [{"measurement": "IC50", "setting": "AN3-CA cells; AN3-CA (PTEN and PIK3R1 mutations), listed as Test Compound 2, read-out: Cell Viability IC50 AN3-CA", "value": 23, "unit": "nM"}, {"measurement": "IC50", "setting": "AN3-CA cells; [4]", "value": "< 30", "unit": "nM"}, {"measurement": "IC50", "setting": "PDK1 [1]; [5]", "value": 0.094, "unit": "µM"}, {"measurement": "IC50", "setting": "PDK1 [1]; [6]", "value": 0.094, "unit": "µM"}, {"measurement": "IC50", "setting": "PDK1 [2]", "value": 94, "unit": "nM"}]}, {"smiles": "O=C(Nc1ccc2[nH]nc(-c3nc4ccc(N5CCOCC5)cc4[nH]3)c2c1)C1CC1(F)F", "note": "(centres unmarked) [Compound 1, 2,2-difluoro-N-(3-(5-morpholino-1H-benzo[d]imidazol-2-yl)-1H-indazol-5-yl)cyclopropanecarboxamide]", "values": [{"measurement": "Sensitivity of KG-1 cell line", "setting": "KG-1 cell line", "value": "very sensitive"}, {"measurement": "Sensitivity of Kasumi cell line", "setting": "Kasumi cell line", "value": "very sensitive"}, {"measurement": "Sensitivity of MV4-11 cell line", "setting": "MV4-11 cell line", "value": "very sensitive"}, {"measurement": "IC50", "setting": "LNCap", "value": 24800, "unit": "nM"}, {"measurement": "IC50", "setting": "PC-3", "value": 7560, "unit": "nM"}, {"measurement": "Potency in cell viability assay, RL-95-2 (in words)", "setting": "RL95-2 cells; FIG. 6", "value": "moderately potent"}, {"measurement": "IC50", "setting": "RL95-2 cells; RL95-2, Table VI panel, mutation PTEN, HRAS, read-out: IC50 cell viability, RL95-2", "value": 654, "unit": "nM"}, {"measurement": "IC50", "setting": "RL95-2 cells; RL95-2, read-out: IC50 cell viability, RL-95-A", "value": 479, "unit": "nM"}, {"measurement": "IC50", "setting": "RL95-2 cells; RL95-2 (PTEN mutation), read-out: Cell Viability IC50 RL95-2", "value": 479, "unit": "nM"}, {"measurement": "Potency in cell viability assay, HEC-1A (in words)", "setting": "HEC-1A cells; FIG. 6", "value": "relatively inactive"}, {"measurement": "IC50", "setting": "HEC-1A cells; HEC-1-A, Table VI panel, mutation KRAS, PIK3CA, read-out: IC50 cell viability, Hec-1A", "value": 3760, "unit": "nM"}, {"measurement": "IC50", "setting": "HEC-1A cells; HEC-1A (PTEN-wild type), read-out: Cell Viability IC50 HEC-1A", "value": 3780, "unit": "nM"}, {"measurement": "Potency in cell viability assay, AN3-CA (in words)", "setting": "AN3-CA cells; FIG. 6", "value": "most potent"}, {"measurement": "IC50", "setting": "AN3-CA cells; [4]", "value": 27, "unit": "nM"}, {"measurement": "IC50", "setting": "AN3-CA cells; Homo sapiens, AN3-CA, Table VI panel, mutation PTEN, PIK3R1, read-out: IC50 cell viability, AN3-CA", "value": 48, "unit": "nM"}, {"measurement": "IC50", "setting": "AN3-CA cells; Homo sapiens, AN3-CA, read-out: IC50 cell viability, AN3-CA cells", "value": 27, "unit": "nM"}, {"measurement": "IC50", "setting": "MCF-7", "value": 8790, "unit": "nM"}, {"measurement": "IC50 in 9 of the 82 cell lines", "setting": "[3]; 9 cell lines", "value": "hundreds of nano-molar range"}, {"measurement": "IC50", "setting": "[3]; 68 of the cell lines, 10 μM down to 3 nM, read-out: IC50 in 68 of the 82 cell lines", "value": "> 1000", "unit": "nM"}, {"measurement": "IC50", "setting": "[3]; read-out: IC50 in 5 cell lines", "value": "< 100", "unit": "nM"}, {"measurement": "IC50", "setting": "786-O", "value": 6010, "unit": "nM"}, {"measurement": "IC50", "setting": "PDK1 [1]; [5]", "value": 0.08, "unit": "µM"}, {"measurement": "IC50", "setting": "PDK1 [1]; [6]", "value": 0.08, "unit": "µM"}, {"measurement": "IC50", "setting": "PDK1 [2]", "value": 80, "unit": "nM"}, {"measurement": "Kinase profiling activity against PDK1 (in words)", "setting": "PDK1 [2]; profiling at 500 nM, FIG. 8", "value": "good activity"}, {"measurement": "IC50", "setting": "NCCIT", "value": 2110, "unit": "nM"}, {"measurement": "IC50", "setting": "BT549", "value": 3160, "unit": "nM"}]}]}
